Data published in PubChem BioAssay AID2060896 (Molecular Pharmacology Branch, DTP, NCI, 2025).
Values belong to the compound of their own block, whether it stands above or below them.

System: 941728-121-R-J1-PDC complex spheroid viability
Experiment: Anticancer human tumor 941728-121-R-J1-PDC patient-derived lung adenocarcinoma cell line growth inhibition [RAS]
Conditions: for IC50: curve of first compound; for viability, T/C: stronger effect = lower value
Outline: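 Multi-cell-type spheroids: tumor cells plus HUVEC endothelial cells and mesenchymal stem cells. RAS-pathway inhibitors were combined with targeted agents, each dosed in half-log steps down from clinical Cmax, or from 10 microM when Cmax was unknown.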

[1] = second compound 0.000949 µM, first compound 0.0316 µM
[2] = second compound 0.000949 µM, first compound 0.1 µM
[3] = second compound 0.000949 µM, first compound 0.316 µM
[4] = second compound 0.000949 µM, first compound 1 µM
[5] = second compound 0.003 µM, first compound 0.0316 µM
[6] = second compound 0.003 µM, first compound 0.1 µM
[7] = second compound 0.003 µM, first compound 0.316 µM
[8] = second compound 0.003 µM, first compound 1 µM
[9] = second compound 0.00949 µM, first compound 0.0316 µM
[10] = second compound 0.00949 µM, first compound 0.1 µM
[11] = second compound 0.00949 µM, first compound 0.316 µM
[12] = second compound 0.00949 µM, first compound 1 µM
[13] = second compound 0.03 µM, first compound 0.0316 µM
[14] = second compound 0.03 µM, first compound 0.1 µM
[15] = second compound 0.03 µM, first compound 0.316 µM
[16] = second compound 0.03 µM, first compound 1 µM
[17] = second compound 0.0949 µM, first compound 0.0316 µM
[18] = second compound 0.0949 µM, first compound 0.1 µM
[19] = second compound 0.0949 µM, first compound 0.316 µM
[20] = second compound 0.0949 µM, first compound 1 µM
[21] = second compound 0.3 µM, first compound 0.0316 µM
[22] = second compound 0.3 µM, first compound 0.1 µM
[23] = second compound 0.3 µM, first compound 0.316 µM
[24] = second compound 0.3 µM, first compound 1 µM
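Further: spheroids exposed to compounds for 7 days before readout.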
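Wherever viability, T/C is given: 100% = DMSO vehicle control viability.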

IC50 (second compound 0.000949 µM): < 31.6 nM
IC50 (second compound 0.003 µM): < 31.6 nM
IC50 (second compound 0.00949 µM): < 31.6 nM
IC50 (second compound 0.03 µM): < 31.6 nM
IC50 (second compound 0.0949 µM): < 31.6 nM
IC50 (second compound 0.3 µM): < 31.6 nM
Structure (SMILES): C[C@@H](NC(=O)c1ncnc(N)c1Cl)c1ncc(C(=O)Nc2cc(C(F)(F)F)c(Cl)cn2)s1 + CCn1c(-c2cccnc2C(C)OC)c2c3cc(ccc31)N1CCOC(CC(NC(=O)C(C(C)C)N(C)C(=O)C3(F)CCN(C(=O)C#CC(C)(C)N(C)C)CC3)C(=O)N3CCCC(N3)C(=O)OCC(C)(C)C2)C1
viability, T/C [1]: 25.9%
viability, T/C [2]: 26.5%
viability, T/C [3]: 20.4%
viability, T/C [4]: 26.4%
viability, T/C (second compound 0.000949 µM, first compound 3.16 µM): 24.6%
viability, T/C (second compound 0.000949 µM, first compound 10 µM): 16.7%
viability, T/C [5]: 21.6%
viability, T/C [6]: 20.3%
viability, T/C [7]: 19.4%
viability, T/C [8]: 23.7%
viability, T/C (second compound 0.003 µM, first compound 3.16 µM): 23.5%
viability, T/C (second compound 0.003 µM, first compound 10 µM): 17.9%
viability, T/C [9]: 22.9%
viability, T/C [10]: 19.8%
viability, T/C [11]: 24.6%
viability, T/C [12]: 22.4%
viability, T/C (second compound 0.00949 µM, first compound 3.16 µM): 21%
viability, T/C (second compound 0.00949 µM, first compound 10 µM): 19.9%
viability, T/C [13]: 23.9%
viability, T/C [14]: 20.6%
viability, T/C [15]: 26.3%
viability, T/C [16]: 23.1%
viability, T/C (second compound 0.03 µM, first compound 3.16 µM): 17.4%
viability, T/C (second compound 0.03 µM, first compound 10 µM): 21.6%
viability, T/C [17]: 21.7%
viability, T/C [18]: 24%
viability, T/C [19]: 22.6%
viability, T/C [20]: 24.4%
viability, T/C (second compound 0.0949 µM, first compound 3.16 µM): 21.2%
viability, T/C (second compound 0.0949 µM, first compound 10 µM): 22.2%
viability, T/C [21]: 22.6%
viability, T/C [22]: 26%
viability, T/C [23]: 23.2%
viability, T/C [24]: 25.1%
viability, T/C (second compound 0.3 µM, first compound 3.16 µM): 21.9%
viability, T/C (second compound 0.3 µM, first compound 10 µM): 20.1%

IC50 (second compound 0.000949 µM): < 3.16 nM
IC50 (second compound 0.003 µM): < 3.16 nM
IC50 (second compound 0.00949 µM): < 3.16 nM
IC50 (second compound 0.03 µM): < 3.16 nM
IC50 (second compound 0.0949 µM): < 3.16 nM
IC50 (second compound 0.3 µM): < 3.16 nM
Structure (SMILES): O=C(c1ccc(F)c(F)c1Nc1ccc(I)cc1F)N1CC(O)([C@@H]2CCCCN2)C1 + CCn1c(-c2cc(N3CCN(C)CC3)cnc2C(C)OC)c2c3cc(ccc31)-c1csc(n1)CC(NC(=O)C1CC1C)C(=O)N1CCCC(N1)C(=O)OCC(C)(C)C2
viability, T/C (second compound 0.000949 µM, first compound 0.00316 µM): 26%
viability, T/C (second compound 0.000949 µM, first compound 0.01 µM): 26.8%
viability, T/C [1]: 15.6%
viability, T/C [2]: 19.6%
viability, T/C [3]: 16.4%
viability, T/C [4]: 8.5%
viability, T/C (second compound 0.003 µM, first compound 0.00316 µM): 21.8%
viability, T/C (second compound 0.003 µM, first compound 0.01 µM): 17.2%
viability, T/C [5]: 15.4%
viability, T/C [6]: 14.5%
viability, T/C [7]: 12.3%
viability, T/C [8]: 13.5%
viability, T/C (second compound 0.00949 µM, first compound 0.00316 µM): 15.1%
viability, T/C (second compound 0.00949 µM, first compound 0.01 µM): 11%
viability, T/C [9]: 12.7%
viability, T/C [10]: 12.7%
viability, T/C [11]: 12%
viability, T/C [12]: 8.59%
viability, T/C (second compound 0.03 µM, first compound 0.00316 µM): 13.4%
viability, T/C (second compound 0.03 µM, first compound 0.01 µM): 12.9%
viability, T/C [13]: 12.2%
viability, T/C [14]: 12.7%
viability, T/C [15]: 8.4%
viability, T/C [16]: 10.3%
viability, T/C (second compound 0.0949 µM, first compound 0.00316 µM): 12.6%
viability, T/C (second compound 0.0949 µM, first compound 0.01 µM): 12.5%
viability, T/C [17]: 12.3%
viability, T/C [18]: 12.4%
viability, T/C [19]: 11%
viability, T/C [20]: 10.8%
viability, T/C (second compound 0.3 µM, first compound 0.00316 µM): 12%
viability, T/C (second compound 0.3 µM, first compound 0.01 µM): 11.5%
viability, T/C [21]: 12.7%
viability, T/C [22]: 11.5%
viability, T/C [23]: 8.36%
viability, T/C [24]: 9.92%
